Reference: a melting point compilation (Tetko et al.; mined from patent text by program, amines drawn as free bases though some values may be those of a salt)

In the case of O=C(CN1CCN(c2cnccn2)CC1)N1CCC(CO)(c2cccc(C(F)(F)F)c2)CC1, the melting point is reported as 223 °C. For COc1cc(Nc2c(C#N)cnc3cc(OC)c(Br)cc23)c(Cl)cc1Cl, the melting point was 256 to 257 °C. In the case of CCn1c2ccccc2c2cc3ccccc3c(C=O)c21, the melting point is reported as 95.5 to 96.5 °C. For CC(C)C(=O)Nc1c(Cl)cccc1C(=O)Nc1ccc(OC(F)(F)F)cc1, the melting point was 230 to 233 °C. Compound CC(C)c1ccc(N2Cc3ccc(Cl)cc3C2=O)cc1 has a melting point of 206 to 209 °C. In the case of COc1cc2c(c(-c3cccc(Cl)c3Cl)c1)OC(CN)C2 (centres undefined), the melting point is reported as 159 to 161 °C. COc1ccc(O)c(CSc2ccccc2CO)c1 showed a melting point of 80 to 82 °C. CC(=O)Nc1nc2c(s1)-c1nc(-c3cc(C#CC4CCNCC4)ccc3Cl)ncc1CC2 gave a melting point of 162 °C. In the case of C#CCn1ncc(-c2ccc(S(C)(=O)=O)cc2)c(-c2ccc(F)cc2)c1=O, the melting point is reported as 196 to 198 °C. In the case of COc1ccc(OCC2CCC(CBr)CC2)c(Cl)c1 (centres undefined), the melting point is reported as 74 to 78 °C. With COC(=O)C(C)NC(=O)C1CCCN1C(=O)OCc1ccccc1 (centres undefined) the melting point was 45 to 49 °C. O=[N+]([O-])c1ccc(-c2nc[nH]c2-c2ccc([N+](=O)[O-])cc2)cc1 gave a melting point of 294 °C. In the case of Cc1ccccc1CC(=O)c1cccc(I)c1, the melting point is reported as 115 to 117 °C. COc1ccc(N)cc1OCCCN1CCC(c2noc3cc(F)ccc23)CC1 gave a melting point of 94 to 95 °C. In the case of C#CCN1CCCc2ccc(OC(=O)NCCCCCCC)cc21, the melting point is reported as 54 °C. In the case of CCOC(=O)c1ccc(OCCSc2ccccc2)cc1, the melting point is reported as 50 to 51 °C. Cc1csc(-c2cc(-c3ccncc3)c3n(c2=O)CCCc2ccncc2-3)n1 gave a melting point of 300 to 302 °C. Work on Cc1cnc2c(c1)COP(=S)(N(C)C)O2 (centres undefined) yielded a melting point of 101 to 102 °C. Compound CC[C@H](C)[C@H](NS(=O)(=O)c1cccc2ccccc12)C(=O)N[C@@H](Cc1c[nH]c2ccccc12)C(=O)O has a melting point of 167 to 168 °C. Work on COc1c(N2CC[C@H]([C@@H](C)NC(=O)OC(C)(C)C)C2)c(F)cc2c(=O)n(N)c(=O)n(C3CC3)c12 yielded a melting point of 96 to 98 °C. With COC(=O)c1cc(-c2nc(COc3ccc(CO)cc3OC)c(C)o2)ccc1C the melting point was 145 to 146 °C. COc1cc(CNC(=O)c2nc3ccc(F)c(OCCc4ccc(-c5c(O)noc5C)cc4)c3c(=O)[nH]2)ccc1F gave a melting point of 240 to 242 °C. In the case of CCOC(=O)c1ccc(-c2coc(-c3cccc(C(F)(F)F)c3)n2)cc1, the melting point is reported as 132 to 133 °C. Compound COc1ccc(-c2c[nH]c(-c3cccnc3)n2)cc1 has a melting point of 184 to 186 °C. Compound N#CC1CC(C#N)(c2ccc(OC(F)F)c(OCC3CC3)c2)CCC1=O (centres undefined) has a melting point of 142 to 143 °C. For O=C(O)C(=Cc1c[nH]c2ncccc12)c1ccccc1, the melting point was > 230 °C. COc1ccc(C2=NN(C3CCN(S(=O)(=O)N(C)C)CC3)C(=O)CC2)cc1OC gave a melting point of 103 to 106 °C. For CCOC(=O)N1CCN(c2ccc(N3CC(CNC(C)=O)OC3=O)cc2F)CC1 (centres undefined), the melting point was 224 to 226 °C. Cc1cnc(-c2ccc(O)cc2)o1 showed a melting point of 177 to 178 °C. CCCCCCN1CCN(Cc2ccc(NC(N)=S)cc2)C(=O)C1=O showed a melting point of 197 to 198 °C. CC(C)(O)c1ccc(CC(=O)Nc2cccnc2Oc2ccc(F)cc2)cc1 showed a melting point of 135 to 137 °C. Compound CCOC(=O)C(=O)Nc1ccc2cc(Br)ccc2c1[N+](=O)[O-] has a melting point of 175 °C. In the case of Cc1cc(C)cc(-c2nc(N)sc2-c2ccncc2)c1, the melting point is reported as 242 to 244 °C. For Cc1c2c(c(C)c3c1OC(C)(CI)C3)N(C=O)C(C)(C)C2 (centres undefined), the melting point was 124 to 126 °C. CSc1cc2c(cc1C(F)(F)F)N(C(=O)Nc1ccc(C(=O)N(C)c3ccncc3)cc1)CC2 showed a melting point of 230 to 232 °C. In the case of c1ccc(OCCN2CCN(Cc3c[nH]c4ncccc34)CC2)cc1, the melting point is reported as 143 °C. COc1cc(C(C)C)c(NC(=O)CN2CCN(CCSc3nc4cccc(C(F)(F)F)c4o3)CC2)c(C(C)C)c1 gave a melting point of 122 to 123 °C. For CCOC(=O)C(=NC1CCCCC1)c1cccn1C, the melting point was 35 to 36 °C. For C[C@H](NS(=O)(=O)C12CC3CC(CC(C3)C1)C2)C(=O)N1CCC[C@H]1C(=O)Nc1ccccc1, the melting point was 138 to 141 °C. Compound O=C(Nc1nc(Cl)c(C(=O)NCc2ccccc2)s1)c1ccccc1 has a melting point of 247 to 249 °C. NC(=O)C=Cc1ccc(N)cc1 gave a melting point of 200 °C. Work on CCCCCC(C)C(C)c1cc(O)c2c(c1)OC(C)(C)C1=C2CN(CC(=O)O)CC1 (centres undefined) yielded a melting point of 192 to 195 °C. In the case of CC(C)(C)NC(=O)CN1C(=O)C(N)CC(c2ccc(Cl)c(Cl)c2)c2ccccc21 (centres undefined), the melting point is reported as 140 to 150 °C. With Nc1nc(Cl)cc(NCC2(CO)CCC2)n1 the melting point was 192 to 194 °C. Cc1ccc(C(N)=S)c2ccccc12 gave a melting point of 143 to 145 °C. In the case of COC(=S)NCc1cn(-c2cc(F)c(N3CCC(=O)CC3)c(F)c2)nn1, the melting point is reported as 175 to 176 °C. With Cc1cc(C(=O)CS(C)(=O)=O)cc(C)c1N the melting point was 179 to 180 °C. With O=C1c2ccccc2C(=O)N1CCCSc1ncco1 the melting point was 101 °C. In the case of COc1ccc(S(=O)(=O)Nc2cccnc2Nc2ccccc2)cc1, the melting point is reported as 172 to 173 °C.
